Measured values: patent US9365588B2, “Benzoxazines as modulators of ion channels” (Vertex Pharmaceuticals Incorporated, priority 2011, dated 2016)

Target: human NaV 1.7 (Homo sapiens, UniProt Q15858)
Assay: E-VIPR optical membrane potential assay with electrical stimulation
Format: cell-based
Conditions: sodium channel inhibition; read-out: Binned Activity Data (IC50)
In short: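 Membrane-potential read-out: background-subtracted 460 nm/580 nm ratio during a 9 s current-controlled stimulus, 400 Hz scan. Before stimulation, NaV1.7-HEK cells carried coumarin/oxonol dye and compound (final DMSO 0.625%) for 20–35 min at room temperature; tetracaine 125 μM served as positive control.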

Chain of human NaV 1.7 (Q15858 whole entry): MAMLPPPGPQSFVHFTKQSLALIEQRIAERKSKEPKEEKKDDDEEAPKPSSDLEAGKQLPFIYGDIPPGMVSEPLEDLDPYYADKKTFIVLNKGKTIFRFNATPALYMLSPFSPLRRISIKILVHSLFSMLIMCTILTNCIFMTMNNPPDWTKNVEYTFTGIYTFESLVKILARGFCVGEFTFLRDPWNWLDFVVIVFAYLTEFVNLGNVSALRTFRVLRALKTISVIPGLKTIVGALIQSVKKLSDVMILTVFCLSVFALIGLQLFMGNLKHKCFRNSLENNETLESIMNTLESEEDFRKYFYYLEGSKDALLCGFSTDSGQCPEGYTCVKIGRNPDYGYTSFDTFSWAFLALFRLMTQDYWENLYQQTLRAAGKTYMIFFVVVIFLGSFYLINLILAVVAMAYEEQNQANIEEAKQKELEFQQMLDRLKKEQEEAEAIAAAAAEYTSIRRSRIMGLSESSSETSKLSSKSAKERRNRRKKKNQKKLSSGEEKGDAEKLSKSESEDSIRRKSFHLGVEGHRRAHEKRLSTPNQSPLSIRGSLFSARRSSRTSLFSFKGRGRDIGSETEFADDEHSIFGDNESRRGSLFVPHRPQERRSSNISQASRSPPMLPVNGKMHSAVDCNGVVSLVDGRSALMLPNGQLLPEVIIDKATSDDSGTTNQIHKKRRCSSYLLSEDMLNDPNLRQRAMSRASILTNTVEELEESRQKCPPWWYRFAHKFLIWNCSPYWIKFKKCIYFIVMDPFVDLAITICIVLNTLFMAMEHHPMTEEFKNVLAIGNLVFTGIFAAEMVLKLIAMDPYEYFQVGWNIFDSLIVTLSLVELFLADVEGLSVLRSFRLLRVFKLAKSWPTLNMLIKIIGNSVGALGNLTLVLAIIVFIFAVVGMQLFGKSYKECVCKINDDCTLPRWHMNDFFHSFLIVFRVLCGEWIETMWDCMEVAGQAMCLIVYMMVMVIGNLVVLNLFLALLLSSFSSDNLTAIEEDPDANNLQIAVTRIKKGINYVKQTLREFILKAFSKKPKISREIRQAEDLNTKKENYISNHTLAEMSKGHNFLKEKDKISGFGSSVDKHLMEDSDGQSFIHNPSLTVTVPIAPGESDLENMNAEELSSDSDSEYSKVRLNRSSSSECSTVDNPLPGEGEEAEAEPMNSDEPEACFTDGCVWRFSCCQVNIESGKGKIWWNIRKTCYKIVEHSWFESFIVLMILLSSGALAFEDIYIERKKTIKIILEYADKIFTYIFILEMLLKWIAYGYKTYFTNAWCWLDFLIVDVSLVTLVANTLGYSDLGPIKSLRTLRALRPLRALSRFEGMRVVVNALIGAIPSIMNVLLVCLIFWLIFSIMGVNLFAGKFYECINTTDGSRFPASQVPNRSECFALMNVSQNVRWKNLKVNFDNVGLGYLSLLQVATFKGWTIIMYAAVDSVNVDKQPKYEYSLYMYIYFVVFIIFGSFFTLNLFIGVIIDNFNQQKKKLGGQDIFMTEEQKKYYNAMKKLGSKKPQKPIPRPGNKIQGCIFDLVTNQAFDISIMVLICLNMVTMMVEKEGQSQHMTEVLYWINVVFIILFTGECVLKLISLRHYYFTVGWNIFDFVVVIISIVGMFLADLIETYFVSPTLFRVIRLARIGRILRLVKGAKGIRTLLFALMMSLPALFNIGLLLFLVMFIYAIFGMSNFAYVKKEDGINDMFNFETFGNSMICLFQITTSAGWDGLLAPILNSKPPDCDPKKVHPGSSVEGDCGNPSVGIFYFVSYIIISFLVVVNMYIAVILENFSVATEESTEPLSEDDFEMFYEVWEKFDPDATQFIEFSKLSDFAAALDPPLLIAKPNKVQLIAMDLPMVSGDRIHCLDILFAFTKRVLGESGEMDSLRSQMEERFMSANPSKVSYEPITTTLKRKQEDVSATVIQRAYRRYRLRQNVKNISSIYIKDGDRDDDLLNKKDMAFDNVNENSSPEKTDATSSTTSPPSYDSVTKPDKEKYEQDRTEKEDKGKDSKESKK

Row | SMILES | IC50
1 | Cn1ncc2c1-c1ccccc1OC21CCN(C(=O)c2ccc(OC(C)(C)C)cc2F)CC1 [Compound 704] | ≤ 2000 nM
2 | CCOc1ccccc1C(=O)N1CCC2(CC1)Oc1ccccc1-c1c2cnn1C [Compound 212] | ≤ 2000 nM
3 | Cn1ncc2c1-c1ccccc1OC21CCN(C(=O)c2ccc3c(c2)C(C)(C)CO3)CC1 [Compound 369] | ≤ 2000 nM
4 | O=C(c1ccccc1O)N1CCC2(CC1)Oc1cc(Cl)ccc1-n1cccc12 [Compound 790] | ≤ 2000 nM
5 | O=C(c1ccccc1OC(F)F)N1CCC2(CC1)Oc1ccccc1-c1[nH]ncc12 [Compound 409] | > 5000 nM
6 | COc1cc(C(=O)N2CCC3(CC2)Oc2cc(Cl)ccc2-n2cccc23)ccc1OCC(N)=O [Compound 373] | ≤ 2000 nM
7 | CC(C)S(=O)(=O)c1ccc(C(=O)N2CCC3(CC2)Oc2cc(F)ccc2-n2c(C(F)(F)F)ccc23)cc1 [Compound 804] | > 5000 nM
8 | CC(C)Oc1ccc(C(=O)N2CCC3(CC2)Oc2ccccc2-n2c([S+](C)[O-])ccc23)cc1CO (stereo not shown) [Compound 286] | ≤ 2000 nM
9 | COc1ccc(F)cc1C(=O)N1CCC2(CC1)Oc1ccccc1-c1c2cnn1C [Compound 476] | ≤ 2000 nM
10 | COc1cc(C(=O)N2CCC3(CC2)Oc2cc(F)ccc2-n2cccc23)ccc1OC[C@@H](O)CO [Compound 588] | ≤ 2000 nM
11 | COc1cc(C(=O)N2CCC3(CC2)Oc2cc(Cl)ccc2-n2cccc23)ccc1OC1CCC(O)C1 (stereo not shown) [Compound 366] | ≤ 2000 nM
12 | CCCOc1ccc(C(=O)N2CCC3(CC2)Oc2ccccc2-n2cccc23)cc1C(F)(F)F [Compound 69] | ≤ 2000 nM
13 | CC(C)(C)S(=O)(=O)c1ccc(C(=O)N2CCC3(CC2)Oc2ccccc2-n2c3ccc2S(C)(=O)=O)cc1 [Compound 404] | ≤ 2000 nM
14 | Cc1cc(S(=O)(=O)C(C)C)ccc1C(=O)N1CCC2(CC1)Oc1ccccc1-n1c(C#N)ccc12 [Compound 426] | ≤ 2000 nM
15 | CC(C)(C)S(=O)(=O)c1ccc(C(=O)N2CCC3(CC2)Oc2ccccc2-n2cccc23)cc1 [Compound 327] | ≤ 2000 nM
16 | Cn1ncc2c1-c1ccccc1OC21CCN(C(=O)c2ccccc2OC(F)F)CC1 [Compound 381] | ≤ 2000 nM
17 | Cn1ncc2c1-c1ccccc1OC21CCN(C(=O)c2ccccc2O)CC1 [Compound 102] | > 5000 nM

Row | SMILES | IC50
18 | Cn1ncc2c1-c1ccccc1OC21CCN(C(=O)c2ccc3nc(N)sc3c2)CC1 [Compound 524] | ≤ 2000 nM
19 | Cn1ncc2c1-c1ccccc1OC21CCN(C(=O)c2cccc3c2OCCO3)CC1 [Compound 346] | ≤ 2000 nM
20 | COc1cc(C(=O)N2CCC3(CC2)Oc2ccccc2-n2c(C#N)ccc23)ccc1O [Compound 206] | ≤ 2000 nM
21 | COc1ccc(F)c(F)c1C(=O)N1CCC2(CC1)Oc1ccccc1-c1c2cnn1C [Compound 353] | > 5000 nM
22 | CCCOc1ccc(C(=O)N2CCC3(CC2)Oc2cc(F)ccc2-n2cccc23)cc1C(F)(F)F [Compound 631] | ≤ 2000 nM
23 | Cn1ncc2c1-c1ccccc1OC21CCN(C(=O)c2cccc3c2OCCC3)CC1 [Compound 841] | ≤ 2000 nM
24 | COc1cc(C(=O)N2CCC3(CC2)Oc2ccccc2-c2nn(C)cc23)ccc1C(C)(C)C [Compound 754] | > 5000 nM
25 | COc1cc(C(F)(F)F)ccc1C(=O)N1CCC2(CC1)Oc1cc(Cl)ccc1-n1cccc12 [Compound 484] | ≤ 2000 nM
26 | CCc1ccc(C(=O)N2CCC3(CC2)Oc2cc(CN)ccc2-n2cccc23)cc1OC [Compound 137] | > 5000 nM
27 | COc1cc(C(=O)N2CCC3(CC2)Oc2ccccc2-c2c3cnn2C)ccc1C1CC1 [Compound 442] | ≤ 2000 nM
28 | Cn1ncc2c1-c1ccc(F)cc1OC21CCN(C(=O)c2ccccc2OC(F)F)CC1 [Compound 258] | ≤ 2000 nM
29 | COCCOc1ccc(C(=O)N2CCC3(CC2)Oc2cc(F)ccc2-n2cccc23)cc1OC [Compound 305] | ≤ 2000 nM
30 | COc1ccc(C)cc1C(=O)N1CCC2(CC1)Oc1ccccc1-c1c2cnn1C [Compound 236] | > 5000 nM
31 | CCCOc1ccc(C(=O)N2CCC3(CC2)Oc2cc(F)ccc2-n2cccc23)cc1OC [Compound 812] | ≤ 2000 nM
32 | CC(C)(O)c1ccc(C(=O)N2CCC3(CC2)Oc2ccccc2-n2c(C(F)(F)F)ccc23)cc1 [Compound 722] | ≤ 2000 nM
33 | Cc1ccccc1C(=O)N1CCC2(CC1)Oc1ccccc1-c1c2cnn1C [Compound 217] | 2000 to 5000 nM
34 | CC(C)Oc1ccc(C(=O)N2CCC3(CC2)Oc2ccccc2-c2c3cnn2C)c2ncccc12 [Compound 183] | ≤ 2000 nM

Second part, the compound after the results:

Row | IC50 | SMILES
35 | > 5000 nM | O=C(c1cc2occc2[nH]1)N1CCC2(CC1)Oc1ccccc1-n1c(C(F)(F)F)ccc12 [Compound 214]
36 | ≤ 2000 nM | Cc1cc(C#N)n2c1C1(CCN(C(=O)c3ccc(S(=O)(=O)C(C)C)cc3)CC1)Oc1ccccc1-2 [Compound 549]
37 | ≤ 2000 nM | CC(C)Oc1ccc(C(=O)N2CCC3(CC2)Oc2ccccc2-n2c(C(F)(F)F)ccc23)cc1CO [Compound 531]
38 | ≤ 2000 nM | COc1cc(C)ccc1C(=O)N1CCC2(CC1)Oc1ccccc1-c1c2cnn1C [Compound 465]
39 | ≤ 2000 nM | Cn1ncc2c1-c1cc(Cl)ccc1OC21CCN(C(=O)c2ccccc2OC(F)(F)F)CC1 [Compound 653]
40 | ≤ 2000 nM | CC(C)(C)S(=O)(=O)c1ccsc1C(=O)N1CCC2(CC1)Oc1ccccc1-n1c(C(F)(F)F)ccc12 [Compound 207]
41 | ≤ 2000 nM | Cc1cc(S(C)(=O)=O)ccc1C(=O)N1CCC2(CC1)Oc1ccccc1-n1c(C#N)ccc12 [Compound 784]
42 | ≤ 2000 nM | COCCOc1ccc(C(=O)N2CCC3(CC2)Oc2cc(Cl)ccc2-n2cccc23)cc1OC [Compound 139]
43 | ≤ 2000 nM | CC(C)C(O)c1ccc(C(=O)N2CCC3(CC2)Oc2ccccc2-n2c(C#N)ccc23)cc1 (stereo not shown) [Compound 65]
44 | ≤ 2000 nM | Cc1cc(C(=O)N2CCC3(CC2)Oc2ccccc2-c2c3cnn2C)cc(C)c1OC(C)C [Compound 745]
45 | ≤ 2000 nM | N#Cc1ccc2n1-c1ccccc1OC21CCN(C(=O)c2ccc(OCCO)cc2)CC1 [Compound 197]
46 | ≤ 2000 nM | CCOc1cccc(C(=O)N2CCC3(CC2)Oc2cc(Cl)ccc2-n2cccc23)c1 [Compound 478]
47 | ≤ 2000 nM | CCc1ccc(C(=O)N2CCC3(CC2)Oc2ccccc2-c2c3cnn2C)cc1OC [Compound 251]
48 | ≤ 2000 nM | COC(C)(C)c1ccc(C(=O)N2CCC3(CC2)Oc2cc(F)ccc2-n2cccc23)cc1C [Compound 166]
49 | ≤ 2000 nM | Cn1ncc2c1-c1ccccc1OC21CCN(C(=O)c2cccc3[nH]ccc23)CC1 [Compound 186]
50 | ≤ 2000 nM | Cn1ncc2c1-c1ccc(Cl)cc1OC21CCN(C(=O)c2cccc(F)c2OC(F)F)CC1 [Compound 108]
51 | ≤ 2000 nM | Cc1cc(C(=O)N2CCC3(CC2)Oc2ccccc2-c2c3cnn2C)ccc1OC(C)(C)C [Compound 610]
52 | ≤ 2000 nM | COc1ccc(C(=O)N2CCC3(CC2)Oc2ccccc2-c2c3cnn2C(F)(F)F)cc1OC [Compound 890]
53 | ≤ 2000 nM | O=C(c1ccc(OCCO)cc1)N1CCC2(CC1)Oc1ccccc1-n1cccc12 [Compound 184]
54 | ≤ 2000 nM | COc1cccc2c1c(C(=O)N1CCC3(CC1)Oc1ccccc1-c1c3cnn1C)cn2C [Compound 487]
55 | ≤ 2000 nM | COC(C)(C)c1ccc(C(=O)N2CCC3(CC2)Oc2ccccc2-n2cccc23)cc1C [Compound 817]

Row | IC50 | SMILES
56 | ≤ 2000 nM | COC(C)(C)c1ccc(C(=O)N2CCC3(CC2)Oc2cc(Cl)ccc2-n2cccc23)cc1C [Compound 193]
57 | ≤ 2000 nM | CCc1ccc(C(=O)N2CCC3(CC2)Oc2cc(C(=O)NC)ccc2-n2cccc23)cc1OC [Compound 713]
58 | ≤ 2000 nM | CCn1ncc2c1-c1ccccc1OC21CCN(C(=O)c2ccccc2OC(F)F)CC1 [Compound 167]
59 | > 5000 nM | Cn1ncc2c1-c1ccccc1OC21CCN(C(=O)c2ccc(Cl)cc2S(C)(=O)=O)CC1 [Compound 667]
60 | ≤ 2000 nM | CC(C)Oc1ccc(C(=O)N2CCC3(CC2)Oc2ccccc2-n2c(C#N)ccc23)c(CO)c1 [Compound 310]
61 | 2000 to 5000 nM | COc1cccc(F)c1C(=O)N1CCC2(CC1)Oc1ccccc1-c1c2cnn1C [Compound 763]
62 | ≤ 2000 nM | COCCOc1cc(C(=O)N2CCC3(CC2)Oc2cc(Cl)ccc2-n2cccc23)ccn1 [Compound 706]
63 | ≤ 2000 nM | COc1cc(C(=O)N2CCC3(CC2)Oc2ccccc2-n2cccc23)ccc1OCCO [Compound 97]
64 | ≤ 2000 nM | Cn1cc2c(n1)-c1ccccc1OC21CCN(C(=O)c2ccc(S(=O)(=O)NC3CC3)cc2)CC1 [Compound 767]
65 | ≤ 2000 nM | COc1ccc(C(=O)N2CCC3(CC2)Oc2cc(Cl)ccc2-n2cccc23)cc1C(F)(F)F [Compound 857]
66 | ≤ 2000 nM | COc1cc(C(=O)N2CCC3(CC2)Oc2cc(Cl)ccc2-n2cccc23)ccc1C1(O)COC1 [Compound 287]
67 | ≤ 2000 nM | COc1cc(C(=O)N2CCC3(CC2)Oc2cc(F)ccc2-n2cccc23)ccc1C1(O)COC1 [Compound 612]
68 | ≤ 2000 nM | Cn1cc2c(n1)-c1ccccc1OC21CCN(C(=O)c2ccc3[nH]ncc3c2)CC1 [Compound 595]
69 | 2000 to 5000 nM | COc1ccc(C(=O)N2CCC3(CC2)Oc2ccccc2-c2c3cnn2C)cc1C(F)(F)F [Compound 143]
70 | ≤ 2000 nM | CCS(=O)(=O)c1ccc(C(=O)N2CCC3(CC2)Oc2ccccc2-c2c3cnn2C)cc1C [Compound 821]
71 | ≤ 2000 nM | CNS(=O)(=O)c1ccc(C(=O)N2CCC3(CC2)Oc2ccccc2-c2nn(C)cc23)cc1C [Compound 523]
72 | ≤ 2000 nM | CCn1ncc2c1-c1ccccc1OC21CCN(C(=O)c2ccc(C(C)(C)C)c(OC)c2)CC1 [Compound 372]
73 | 2000 to 5000 nM | Cn1ncc2c1-c1ccccc1OC21CCN(C(=O)c2cnn(-c3ccccc3)c2C(F)(F)F)CC1 [Compound 550]
74 | ≤ 2000 nM | CCn1ncc2c1-c1ccccc1OC21CCN(C(=O)c2ccccc2OC(F)(F)F)CC1 [Compound 321]
75 | ≤ 2000 nM | COCCn1ncc2c1-c1ccccc1OC21CCN(C(=O)c2ccc(C(C)(C)C)c(OC)c2)CC1 [Compound 82]
76 | ≤ 2000 nM | CC(C)C(O)c1ccc(C(=O)N2CCC3(CC2)Oc2ccccc2-n2c(C(F)(F)F)ccc23)cc1 (stereo not shown) [Compound 50]
